Source: patent US10428083B2, “Heterocyclylmethyl-thienouracile as antagonists of the adenosine-A2B-receptor” (BAYER PHARMA AKTIENGESELLSCHAFT, priority 2015, dated 2019)

target: human adenosine A2b receptor (Homo sapiens (Human), UniProt P29275); assay: Cellular in vitro reporter gene test for A2b receptor activity (CHO-K1, CRE-luciferase, NECA stimulation); format: cell-based; settings: recombinant CHO-K1 cell line, CRE-luciferase reporter, antagonism of EC50 concentration of NECA; in some cases means of several determinations, rounded to two significant figures; read-out: A2b receptor IC50
Sequence (P29275 whole entry): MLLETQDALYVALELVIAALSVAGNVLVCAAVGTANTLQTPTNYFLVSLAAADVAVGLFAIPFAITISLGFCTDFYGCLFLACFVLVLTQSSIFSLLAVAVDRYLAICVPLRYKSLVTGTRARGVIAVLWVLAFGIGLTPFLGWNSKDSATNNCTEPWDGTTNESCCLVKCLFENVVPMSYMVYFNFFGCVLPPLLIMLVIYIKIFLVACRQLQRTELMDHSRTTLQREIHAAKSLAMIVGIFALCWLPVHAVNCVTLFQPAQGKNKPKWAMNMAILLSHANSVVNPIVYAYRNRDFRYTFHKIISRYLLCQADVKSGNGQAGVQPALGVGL
Experimental: B-1. Cellular In Vitro Tests for Determining A2b Receptor Activity and Adenosine Receptor Selectivity
In the case of the A2a and A2b cell lines, this is a minimal promoter having a plurality of cAMP-responsive elements (CRE). Stimulation of the Gs-coupled A2b or A2a receptors by NECA ultimately leads, via formation of cAMP, to CRE-dependent induction of luciferase expression, which is detected 3 hours after the start of the incubation with NECA using a detection solution in a suitable luminometer. For testing the antagonists, initially, in a pre-experiment, the concentration of NECA which, at the test day in question, results in half-maximum stimulation of luciferase expression (EC50 concentration) is determined. By joint incubation of this EC50 concentration of NECA with the substances to be tested, it is possible to determine their antagonistic activity.

| SMILES | IC50 [nM] |
| --- | --- |
| CCn1c(=O)c2c(C)c(CN3CCC(C)C3=O)sc2n(CCC(F)(F)F)c1=O (racemic) [Example 6, 3-Ethyl-5-methyl-6-[(3-methyl-2-oxopyrrolidin-1-yl)methyl]-1-(3,3,3-trifluoropropyl)thieno[2,3-d]pyrimidine-2,4(1H,3H)-dione (racemate)] | 8 |
| CCn1c(=O)c2c(C)c(CN3CC(NC(=O)OC(C)(C)C)CC3=O)sc2n(CCC(F)(F)F)c1=O (racemic) [Example 8, tert-Butyl (1-{[3-ethyl-5-methyl-2,4-dioxo-1-(3,3,3-trifluoropropyl)-1,2,3,4-tetrahydrothieno[2,3-d]pyrimidin-6-yl]methyl}-5-oxopyrrolidin-3-yl)carbamate (racemate)] | 120 |
| CCn1c(=O)c2c(C)c(CN3CC(N)CC3=O)sc2n(CCC(F)(F)F)c1=O (racemic) [Example 9, 6-[(4-Amino-2-oxopyrrolidin-1-yl)methyl]-3-ethyl-5-methyl-1-(3,3,3-trifluoropropyl)thieno[2,3-d]pyrimidine-2,4(1H,3H)-dione (racemate)] | 97 |
| CCn1c(=O)c2c(C)c(CN3C(=O)CCC3C)sc2n(CCC(F)(F)F)c1=O (racemic) [Example 10, 3-Ethyl-5-methyl-6-[(2-methyl-5-oxopyrrolidin-1-yl)methyl]-1-(3,3,3-trifluoropropyl)thieno[2,3-d]pyrimidine-2,4(1H,3H)-dione (racemate)] | 7 |
| CCn1c(=O)c2c(C)c(CN3CCNC3=S)sc2n(CC2CCO2)c1=O (racemic) [Example 34, 3-Ethyl-5-methyl-1-(oxetan-2-ylmethyl)-6-[(2-thioxoimidazolidin-1-yl)methyl]thieno[2,3-d]pyrimidine-2,4(1H,3H)-dione (racemate)] | 10 |
| CCn1c(=O)c2c(C)c(CN3CCNC3=S)sc2n(CC2CCCO2)c1=O (racemic) [Example 35, 3-Ethyl-5-methyl-1-(tetrahydrofuran-2-ylmethyl)-6-[(2-thioxoimidazolidin-1-yl)methyl]thieno[2,3-d]pyrimidine-2,4(1H,3H)-dione (racemate)] | 6.3 |
| CCn1c(=O)c2c(C)c(CN3CCNC3=S)sc2n(CC2CCCCO2)c1=O (racemic) [Example 36, 3-Ethyl-5-methyl-1-(tetrahydro-2H-pyran-2-ylmethyl)-6-[(2-thioxoimidazolidin-1-yl)methyl]thieno[2,3-d]pyrimidine-2,4(1H,3H)-dione (racemate)] | 38 |
| CCn1c(=O)c2c(C)c(CN3CCNC3=O)sc2n(CC2CC2(F)F)c1=O (racemic) [Example 54, 1-[(2,2-Difluorocyclopropyl)methyl]-3-ethyl-5-methyl-6-[(2-oxoimidazolidin-1-yl)methyl]thieno[2,3-d]pyrimidine-2,4(1H,3H)-dione (racemate)] | 4.1 |
| CCn1c(=O)c2c(C)c(CN3CCNC3=O)sc2n(CC(C)OC)c1=O (racemic) [Example 62, 3-Ethyl-1-(2-methoxypropyl)-5-methyl-6-[(2-oxoimidazolidin-1-yl)methyl]thieno[2,3-d]pyrimidine-2,4(1H,3H)-dione (racemate)] | 72 |
| CCn1c(=O)c2c(C)c(CN3CCNC3=O)sc2n(CC2CCO2)c1=O (racemic) [Example 65, 3-Ethyl-5-methyl-1-(oxetan-2-ylmethyl)-6-[(2-oxoimidazolidin-1-yl)methyl]thieno[2,3-d]pyrimidine-2,4(1H,3H)-dione (racemate)] | 12 |
| CCn1c(=O)c2c(C)c(CN3CCNC3=O)sc2n(CC2CCCO2)c1=O (racemic) [Example 68, 3-Ethyl-5-methyl-6-[(2-oxoimidazolidin-1-yl)methyl]-1-(tetrahydrofuran-2-ylmethyl)thieno[2,3-d]pyrimidine-2,4(1H,3H)-dione (racemate)] | 8.9 |
| CCn1c(=O)c2c(C)c(CN3CCNC3=O)sc2n(CC2CCCCO2)c1=O (racemic) [Example 71, 3-Ethyl-5-methyl-6-[(2-oxoimidazolidin-1-yl)methyl]-1-(tetrahydro-2H-pyran-2-ylmethyl)thieno[2,3-d]pyrimidine-2,4(1H,3H)-dione (racemate)] | 70 |
| CCn1c(=O)c2c(C)c(CN3CCNC3=O)sc2n(CC2CCOC2)c1=O (racemic) [Example 73, 3-Ethyl-5-methyl-6-[(2-oxoimidazolidin-1-yl)methyl]-1-(tetrahydrofuran-3-ylmethyl)thieno[2,3-d]pyrimidine-2,4(1H,3H)-dione (racemate)] | 79 |
| Cc1c(CN2CCNC2=O)sc2c1c(=O)n(CC(C)C)c(=O)n2CC1CCOC1 (racemic) [Example 90, 3-Isobutyl-5-methyl-6-[(2-oxoimidazolidin-1-yl)methyl]-1-(tetrahydrofuran-3-ylmethyl)thieno[2,3-d]pyrimidine-2,4(1H,3H)-dione (racemate)] | 12 |
| COCCn1c(=O)n(CC(C)OC)c(=O)c2c(C)c(CN3CCNC3=O)sc21 (racemic) [Example 99, 1-(2-Methoxyethyl)-3-(2-methoxypropyl)-5-methyl-6-[(2-oxoimidazolidin-1-yl)methyl]thieno[2,3-d]pyrimidine-2,4(1H,3H)-dione] | 17 |
| CCn1c(=O)c2c(C)c(Cn3ncn(CC(O)CO)c3=O)sc2n(CCOC(F)(F)F)c1=O (racemic) [Example 115, 6-{[4-(2,3-Dihydroxypropyl)-5-oxo-4,5-dihydro-1H-1,2,4-triazol-1-yl]methyl}-3-ethyl-5-methyl-1-[2-(trifluoromethoxy)ethyl]thieno[2,3-d]pyrimidine-2,4(1H,3H)-dione] | 31 |
| Cc1c(CN2CCNC(=O)C2=O)sc2c1c(=O)n(CC(F)(F)F)c(=O)n2CC1CCO1 (racemic) [Example 123, 6-[(2,3-Dioxopiperazin-1-yl)methyl]-5-methyl-1-(oxetan-2-ylmethyl)-3-(2,2,2-trifluoroethyl)thieno[2,3-d]pyrimidine-2,4(1H,3H)-dione] | 53 |
| CCn1c(=O)c2c(C)c(Cn3[nH]ccc3=O)sc2n(CC2CCCO2)c1=O (racemic) [Example 129, 3-Ethyl-5-methyl-6-[(5-oxo-2,5-dihydro-1H-pyrazol-1-yl)methyl]-1-(tetrahydrofuran-2-ylmethyl)thieno[2,3-d]pyrimidine-2,4(1H,3H)-dione] | 19 |
| Cc1c(Cn2[nH]ccc2=O)sc2c1c(=O)n(C(C)C)c(=O)n2CC1CCCO1 (racemic) [Example 134, 3-Isopropyl-5-methyl-6-[(5-oxo-2,5-dihydro-1H-pyrazol-1-yl)methyl]-1-(tetrahydrofuran-2-ylmethyl)thieno[2,3-d]pyrimidine-2,4(1H,3H)-dione] | 30 |
| Cc1c(CN2CCNC2=S)sc2c1c(=O)n(CC(C)C)c(=O)n2CC1CCO1 (racemic) [Example 146, 3-Isobutyl-5-methyl-1-(oxetan-2-ylmethyl)-6-[(2-thioxoimidazolidin-1-yl)methyl]thieno[2,3-d]pyrimidine-2,4(1H,3H)-dione] | 11 |
| Cc1c(CN2CCNC2=S)sc2c1c(=O)n(CC(F)(F)F)c(=O)n2CC1CCO1 (racemic) [Example 154, 5-Methyl-1-(oxetan-2-ylmethyl)-6-[(2-thioxoimidazolidin-1-yl)methyl]-3-(2,2,2-trifluoroethyl)thieno[2,3-d]pyrimidine-2,4(1H,3H)-dione] | 7.1 |
| Cc1c(CN2CCNC2=S)sc2c1c(=O)n(CC(F)(F)F)c(=O)n2CC1CCCO1 (racemic) [Example 157, 5-Methyl-1-(tetrahydrofuran-2-ylmethyl)-6-[(2-thioxoimidazolidin-1-yl)methyl]-3-(2,2,2-trifluoroethyl)thieno[2,3-d]pyrimidine-2,4(1H,3H)-dione] | 5.7 |
| Cc1c(CN2CCNC2=S)sc2c1c(=O)n(CC(F)F)c(=O)n2CC1CCCO1 (racemic) [Example 162, 3-(2,2-Difluoroethyl)-5-methyl-1-(tetrahydrofuran-2-ylmethyl)-6-[(2-thioxoimidazolidin-1-yl)methyl]thieno[2,3-d]pyrimidine-2,4(1H,3H)-dione] | 7.9 |
| CCn1c(=O)c2c(C)c(CN3CCN(C(C)C)C3=S)sc2n(CC2CCCO2)c1=O (racemic) [Example 175, 3-Ethyl-6-[(3-isopropyl-2-thioxoimidazolidin-1-yl)methyl]-5-methyl-1-(tetrahydrofuran-2-ylmethyl)thieno[2,3-d]pyrimidine-2,4(1H,3H)-dione] | 53 |
| Cc1c(CN2CCNC2=O)sc2c1c(=O)n(C(C)C)c(=O)n2CC1CCO1 (racemic) [Example 183, 3-Isopropyl-5-methyl-1-(oxetan-2-ylmethyl)-6-[(2-oxoimidazolidin-1-yl)methyl]thieno[2,3-d]pyrimidine-2,4(1H,3H)-dione] | 17 |
| Cc1c(CN2CCNC2=O)sc2c1c(=O)n(C(C)C)c(=O)n2CC1CCCO1 (racemic) [Example 186, 3-Isopropyl-5-methyl-6-[(2-oxoimidazolidin-1-yl)methyl]-1-(tetrahydrofuran-2-ylmethyl)thieno[2,3-d]pyrimidine-2,4(1H,3H)-dione] | 13 |
| CCC(C)n1c(=O)c2c(C)c(CN3CCNC3=O)sc2n(CCOC)c1=O (racemic) [Example 190, 3-sec-Butyl-1-(2-methoxyethyl)-5-methyl-6-[(2-oxoimidazolidin-1-yl)methyl]thieno[2,3-d]pyrimidine-2,4(1H,3H)-dione] | 38 |
| Cc1c(CN2CCNC2=O)sc2c1c(=O)n(CC(C)C)c(=O)n2CC1CCO1 (racemic) [Example 194, 3-Isobutyl-5-methyl-1-(oxetan-2-ylmethyl)-6-[(2-oxoimidazolidin-1-yl)methyl]thieno[2,3-d]pyrimidine-2,4(1H,3H)-dione] | 15 |
